Data published in patent publication EP4810052A2, “HCRHR2 SELECTIVE POLYPEPTIDES” (Gubra A/S, priority 2023, dated 2026).
Like-named read-outs stand apart in the source and are kept apart here. Starred links: 1 amine or outer side, 2 acyl side, 3 side chain; linkers in the order of their positions; H or OH if unused. Non-standard residues stand in square brackets, D forms with d. Residues, ends and D or L forms follow the SMILES beside them. Groups on a side chain read outwards from the residue. *: point of attachment. C20 diacid = O=C(O)CCCCCCCCCCCCCCCCCCC(=O)*; γGlu = O=C(O)[C@H](CCC(=O)[*:2])N[*:1]; NMeI = CC[C@H](C)[C@H](NC)C(=O)O; Nle = CCCC[C@H](N)C(=O)O; AEEA = NCCOCCOCC(=O)O; Aib = CC(C)(N)C(=O)O

Assays:
[1] = target: T1, hCRHR2 (Homo sapiens, UniProt Q13324); experiment: HTRF cAMP assay, determination of hCRHR2 potency (peptide libraries 5 conc., purified peptides 11 conc.); type: cell-based; settings: for EC50: read-out: hCRHR2 EC50
T1 sequence (Q13324 1-411): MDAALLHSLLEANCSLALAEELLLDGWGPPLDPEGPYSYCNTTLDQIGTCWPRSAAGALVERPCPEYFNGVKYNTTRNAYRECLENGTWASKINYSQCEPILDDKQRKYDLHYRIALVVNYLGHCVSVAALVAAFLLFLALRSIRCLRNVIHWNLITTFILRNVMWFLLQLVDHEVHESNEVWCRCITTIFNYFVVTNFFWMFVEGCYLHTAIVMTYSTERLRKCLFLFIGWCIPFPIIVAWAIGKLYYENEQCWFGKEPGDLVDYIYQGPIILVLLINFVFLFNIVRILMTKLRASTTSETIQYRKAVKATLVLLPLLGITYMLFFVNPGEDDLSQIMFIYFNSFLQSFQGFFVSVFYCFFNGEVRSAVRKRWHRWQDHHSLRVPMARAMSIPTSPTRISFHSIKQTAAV
How it was run: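 CHO-K1 cells stably expressing human CRHR2, thawed from frozen stocks just before use and run in suspension; cAMP measured by competitive HTRF immunoassay (cryptate anti-cAMP, d2-cAMP). Agonist peptides tested at 5 (libraries) or 11 (purified) concentrations; EC50 from sigmoid variable-slope nonlinear regression.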

[2] = target: T2, hCRHR1 (Homo sapiens, UniProt P34998); experiment: HTRF cAMP assay, determination of hCRHR1 potency (peptide libraries 5 conc., purified peptides 11 conc.); type: cell-based; settings: read-out: hCRHR1 EC50
T2 sequence (P34998 24-415): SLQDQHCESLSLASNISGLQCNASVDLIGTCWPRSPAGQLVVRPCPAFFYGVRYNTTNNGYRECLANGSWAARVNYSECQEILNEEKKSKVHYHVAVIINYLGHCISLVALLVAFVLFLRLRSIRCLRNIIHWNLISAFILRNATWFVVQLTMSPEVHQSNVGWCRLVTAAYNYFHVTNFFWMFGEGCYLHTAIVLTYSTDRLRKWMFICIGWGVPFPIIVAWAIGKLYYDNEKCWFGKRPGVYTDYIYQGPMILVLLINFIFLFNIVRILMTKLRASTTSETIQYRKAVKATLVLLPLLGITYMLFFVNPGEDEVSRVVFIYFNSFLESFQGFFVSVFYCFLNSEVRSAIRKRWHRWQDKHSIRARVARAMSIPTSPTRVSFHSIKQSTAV
How it was run: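 CHO-K1 cells stably expressing human CRHR1, thawed from frozen stocks just before use, were stimulated in suspension with agonist peptides. cAMP was measured by HTRF competitive immunoassay (cryptate anti-cAMP antibody vs d2-cAMP).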

[3] = Thioflavin T fibril formation assay of purified peptides; type: physicochemical; set-up: key: Amyloid fibril formation detected by an increase in ThT fluorescence was denoted with "Yes"; samples without increasing ThT fluorescence hence not forming amyloid fibrils were denoted "No"
How it was run: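 Compounds at 200 µM in 50 mM phosphate buffer at the stated pH values, or at 200 µM in semaglutide drug product adjusted to pH 7.4, with 4 µM ThT final. Fibrillation followed as ThT fluorescence (ex 450/em 480 nm) over 96 h at 40°C, with 5 min shaking at 700 rpm alternating with 5 min rest; triplicates.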

[4] = Chemical stability of purified peptides (RP-UHPLC main peak purity loss); type: physicochemical
How it was run: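 Peptides at about 1.0 mg/ml in 50 mM phosphate buffer pH 7.5, or pH-adjusted for the pH series, were incubated at 40 °C for 14 and 28 days. Main-peak purity was taken as main-peak area over total area by RP-UHPLC (UV 215 nm, C8, 50 °C). Purity loss was calculated versus T0.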

[5] = PK in rats; type: in vivo; set-up: T½ / MRT: unit not given here; settings: Rat
Experimental: Lean male Sprague Dawley rats (RJHan:SD) were obtained from JanVier (JanVier Labs, France) at 7 weeks of age. The animals were pair housed until randomization under a 12/12 h dark-light cycle, light off at 3 PM. Room temperature was controlled to 22°C ± 1°C, with 60 % ± 20% humidity.
Animals had ad libitum access to regular rodent chow (Altromin 1324, Brogaarden, Denmark) and tap water.
After 2 weeks of acclimatization, the animals were single housed and randomized into treatment groups (n = 3 per group) based on body weight on study day -3. On study day 1, animals were dosed 50 nmol/kg IV and SC in combination of two peptides. Plasma samples were collected for PK analysis at times 0.17, 1, 3, 6, 24, 30, 48, 72 and 96 hours post dosing. Plasma samples were analyzed using LC-MSMS and PK parameters were estimated by Non-Compartmental Analysis (NCA).

[6] = pH 7.5
Experimental: Solubility was tested in the following vehicles: 100 mM phosphate buffer facilitating a target pH of 6.5, 7.0, and 7.5. Samples were directly dissolved in Mini-UniPrep Syringeless Filter 0.45 µm unit (Whatman). For the desired concentration, such as a concentration of 4000 µM (approximately 20 mg/mL), 1600 nmol peptide was dissolved in 400 µL vehicle. Samples were incubated for at least 1 h at room temperature on a rocking table. The pH was measured and adjusted. Samples were left on the rocking table for an additional hour before a second pH measurement and adjustment. Visual inspection was performed and noted before the filter was pushed. The concentration of peptide in the filtrate was determined using CAD (Charged Aerosol Detection), double determination was done for each sample. The measured concentration was reported in µM. Furthermore, the pH of the filtrate was measured and reported. Peptides with a measured concentration within +/-20% of target concentration are considered fully soluble.
Compounds were dissolved to a nominal concentration of 4000 µM and analysed as described above. Samples with phenol contained 5.0 mg/ml phenol.

[7] = purified peptides, CHO-K1 cells stably expressing hCRHR2, cAMP HTRF
[8] = purified peptides, CHO-K1 cells stably expressing hCRHR1, cAMP HTRF
[9] = pH 7.5, 40°C, 14 days, first value of cell

| Compound | Selectivity ratio (hCRHR1/ hCRHR2) ([1]; hCRHR1-EC50/hCRHR2-EC50) | EC50 [1, 7] [nM] | EC50 [2, 8] [nM] | Fibrillation (pH 7.5) ([3]; pH 7.5, ThT assay) | Chemical stability at pH 7.5 after 14 days at 40°C (% degradation) [4, 9] | Chemical stability at pH 7.5 after 28 days at 40°C (% degradation) ([4]; pH 7.5, 40°C, 28 days, second value of cell) [%] | MRT [5] | T½ [5] | Solubility pH 7.5, target conc. =10 mg/mL (measured mg/mL) [6] [mg/mL] | Selectivity ratio (hCRHR1/ hCRHR2) ([1]; Table 5) | EC50 ([1]; Table 5, purified peptides) [nM] | EC50 ([2]; Table 5, purified peptides) [nM] | Fibrillation (pH 7.5) ([3]; pH 7.5) | Chemical stability at pH 7.5 after 14 days at 40°C (% degradation) ([4]; pH 7.5, 14 days, 40°C) [%] | Chemical stability at pH 7.5 after 28 days at 40°C (% degradation) ([4]; pH 7.5, 28 days, 40°C) [%] |
| --- | --- | --- | --- | --- | --- | --- | --- | --- | --- | --- | --- | --- | --- | --- | --- |
| CC[C@H](C)[C@H](N)C(=O)N[C@H](C(=O)N[C@@H](CC(C)C)C(=O)N[C@@H](CO)C(=O)N[C@@H](CC(C)C)C(=O)N[C@@H](CC(=O)O)C(=O)N[C@H](C(=O)N1CCC[C@H]1C(=O)N[C@H](C(=O)NCC(=O)N[C@@H](CC(C)C)C(=O)N[C@@H](CC(C)C)C(=O)N[C@@H](CCC(N)=O)C(=O)N[C@H](C(=O)N[C@@H](CC(C)C)C(=O)N[C@@H](CC(C)C)C(=O)N[C@@H](CCC(=O)O)C(=O)N[C@@H](CCC(N)=O)C(=O)N[C@@H](C)C(=O)N[C@@H](CCCNC(=N)N)C(=O)N[C@@H](C)C(=O)N[C@@H](CCCNC(=N)N)C(=O)N[C@@H](C)C(=O)N[C@@H](C)C(=O)N[C@@H](CCCNC(=N)N)C(=O)N[C@@H](CCC(=O)O)C(=O)N[C@@H](CCC(N)=O)C(=O)N[C@@H](C)C(=O)N[C@@H](CCCCNC(=O)COCCOCCNC(=O)COCCOCCNC(=O)CC[C@H](NC(=O)CC[C@H](NC(=O)CCCCCCCCCCCCCCCCCCC(=O)O)C(=O)O)C(=O)O)C(=O)N[C@H](C(=O)N[C@@H](CC(N)=O)C(=O)N[C@H](C(=O)N[C@@H](CCC(=O)O)C(=O)N[C@H](C(=O)N[C@@H](CC(C)C)C(=O)N[C@@H](C)C(=O)N[C@@H](CCC(=O)O)C(=O)N[C@H](C(N)=O)C(C)C)[C@@H](C)CC)C(C)C)[C@@H](C)O)[C@@H](C)CC)[C@@H](C)CC)C(C)C)C(C)C [SEQ ID NO: 14] (H-IVLSLDVPIGLLQILLEQARARAAREQAK([AEEA-AEEA-γGlu-γGlu-C20 diacid])TNVEILAEV-NH2) | > 1000 | 5 | > 5000 | No | -0.3% | -1.2 | 6.1 | 5.1 | 9.2 |  |  |  |  |  |  |
| CCCC[C@H](NC(=O)[C@@H](NC(=O)[C@H](CCC(=O)O)NC(=O)C(C)(C)NC(=O)[C@H](CC(N)=O)NC(=O)[C@@H](NC(=O)[C@H](CCCCNC(=O)COCCOCCNC(=O)COCCOCCNC(=O)CC[C@H](NC(=O)CC[C@H](NC(=O)CCCCCCCCCCCCCCCCCCC(=O)O)C(=O)O)C(=O)O)NC(=O)[C@H](C)NC(=O)[C@H](CCC(N)=O)NC(=O)[C@H](CCC(=O)O)NC(=O)[C@H](CCCNC(=N)N)NC(=O)[C@H](C)NC(=O)[C@H](C)NC(=O)[C@H](CCCNC(=N)N)NC(=O)[C@H](C)NC(=O)[C@H](CCCNC(=N)N)NC(=O)[C@H](C)NC(=O)[C@H](CCC(N)=O)NC(=O)[C@H](CCC(=O)O)NC(=O)[C@H](CC(C)C)NC(=O)[C@H](CC(C)C)NC(=O)[C@@H](NC(=O)[C@H](CCC(N)=O)NC(=O)[C@H](CC(C)C)NC(=O)[C@H](CC(C)C)NC(=O)CNC(=O)[C@@H](NC(=O)[C@@H]1CCCN1C(=O)[C@@H](NC(=O)[C@H](CC(=O)O)NC(=O)[C@H](CC(C)C)NC(=O)[C@H](CO)NC(=O)[C@H](CC(C)C)NC(=O)[C@@H](NC(=O)[C@@H](N)[C@@H](C)CC)C(C)C)C(C)C)[C@@H](C)CC)[C@@H](C)CC)[C@@H](C)O)[C@@H](C)CC)C(=O)N[C@@H](C)C(=O)N[C@@H](CCC(=O)O)C(=O)N[C@H](C(N)=O)[C@@H](C)CC [compound 100] (H-IVLSLDVPIGLLQILLEQARARAAREQAK([AEEA-AEEA-γGlu-γGlu-C20 diacid])TN[Aib]EI[Nle]AEI-NH2) |  |  |  |  |  |  |  |  | 11 | >6494 | 0.77 | > 5000 | No | -0.43 | -0.8 |
| CC[C@H](C)[C@H](NC)C(=O)N[C@H](C(=O)N[C@@H](CC(C)C)C(=O)N[C@@H](CO)C(=O)N[C@@H](CC(C)C)C(=O)N[C@@H](CC(=O)O)C(=O)N[C@H](C(=O)N1CCC[C@H]1C(=O)N[C@H](C(=O)NCC(=O)N[C@@H](CC(C)C)C(=O)N[C@@H](CC(C)C)C(=O)N[C@@H](CCC(N)=O)C(=O)N[C@H](C(=O)N[C@@H](CC(C)C)C(=O)N[C@@H](CC(C)C)C(=O)N[C@@H](CCC(=O)O)C(=O)N[C@@H](CCC(N)=O)C(=O)N[C@@H](C)C(=O)N[C@@H](CCCNC(=N)N)C(=O)N[C@@H](C)C(=O)N[C@@H](CCCNC(=N)N)C(=O)N[C@@H](C)C(=O)N[C@@H](C)C(=O)N[C@@H](CCCNC(=N)N)C(=O)N[C@@H](CCC(=O)O)C(=O)N[C@@H](CCC(N)=O)C(=O)N[C@@H](C)C(=O)N[C@@H](CCCCNC(=O)COCCOCCNC(=O)COCCOCCNC(=O)CC[C@H](NC(=O)CC[C@H](NC(=O)CCCCCCCCCCCCCCCCCCC(=O)O)C(=O)O)C(=O)O)C(=O)NC(C)(C)C(=O)N[C@@H](CC(N)=O)C(=O)N[C@@H](C)C(=O)N[C@@H](CCC(=O)O)C(=O)N[C@H](C(=O)N[C@@H](CC(C)C)C(=O)N[C@@H](C)C(=O)N[C@@H](CCC(=O)O)C(=O)N[C@H](C(N)=O)C(C)C)[C@@H](C)CC)[C@@H](C)CC)[C@@H](C)CC)C(C)C)C(C)C [SEQ ID NO: 20] (H-[NMeI]VLSLDVPIGLLQILLEQARARAAREQAK([AEEA-AEEA-γGlu-γGlu-C20 diacid])[Aib]NAEILAEV-NH2) | >4167 | 1.2 | > 5000 | No | -1.4 / ND % |  |  |  | 10 |  |  |  |  |  |  |
